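Dose response: 5 concentrations. Exposure: 48 h. Format: 96-well plates. Endpoint: linear interpolation; highest concentration if not reached. GI50 = concentration required for 50% inhibition of growth.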 Active and inactive are the calls of the source. Rule as the data show it: active = GI50 up to about 1.1 µM and inactive = higher.
Legend:
Experiment in all cases: NCI anticancer screen, dose series, 48 h
[1] = tested on: 786-0
[2] = tested on: ACHN
[3] = tested on: CCRF-CEM
[4] = tested on: COLO 205
[5] = tested on: DU-145
[6] = tested on: HL-60
[7] = tested on: HOP-62
[8] = tested on: LOX IMVI
[9] = tested on: M14
[10] = tested on: MDA-MB-231
[11] = tested on: NCI/ADR-RES
[12] = tested on: SK-OV-3
[13] = tested on: TK-10
[14] = tested on: U-251
[15] = tested on: UACC-257
[16] = tested on: UACC-62
[17] = tested on: UO-31
[18] = tested on: SK-MEL-2
[19] = tested on: SR
[20] = tested on: NCI-H522

Measured: GI50

O=[N+]([O-])c1cc(Cl)cnc1Br
inactive: [1] 5.83 µM | [2] 2.09 µM | [3] 4.32 µM | [4] 1.34 µM | [5] 3.71 µM | [6] 3.44 µM | [7] 18.3 µM | [8] 1.22 µM | [9] 3.87 µM | [10] 3.45 µM | [11] 2.14 µM | [12] 10.3 µM | [13] 3.22 µM | [14] 2.16 µM | [15] 9.48 µM | [16] 1.93 µM | [17] 1.76 µM

CN1CCC2(CC1)SSC1(CCN(C)CC1)S2
inactive: [1] > 100 µM | [2] > 100 µM | [3] > 100 µM | [4] 80.2 µM | [6] > 100 µM | [7] > 100 µM | [8] 2.35 µM | [9] > 100 µM | [10] > 100 µM | [11] > 100 µM | [18] > 100 µM | [12] > 100 µM | [19] > 100 µM | [14] > 100 µM | [15] > 100 µM | [16] 46.7 µM | [17] > 100 µM

Nc1ccc2nc(-c3cccc(C(F)(F)F)c3)cc(O)c2c1
inactive: [1] 44.7 µM | [2] 80.2 µM | [3] 28.8 µM | [4] 27.2 µM | [7] 47.2 µM | [8] 51.9 µM | [9] 59.6 µM | [10] 50.7 µM | [20] 61.8 µM | [11] 92.9 µM | [12] 44.8 µM | [19] 25.1 µM | [13] 58.2 µM | [14] 49.3 µM | [15] 51.2 µM | [16] 53.2 µM | [17] 37.4 µM

COc1ccc(O)c(C(=O)CCC(=O)O)c1
inactive: [1] > 100 µM | [2] > 100 µM | [3] > 100 µM | [4] > 100 µM | [6] > 100 µM | [7] > 10 µM | [8] > 100 µM | [9] > 10 µM | [20] > 100 µM | [18] > 100 µM | [12] > 100 µM | [19] > 100 µM | [13] > 100 µM | [14] > 100 µM | [15] 15.6 µM | [16] > 100 µM | [17] > 100 µM

COc1ccccc1NC(=O)C1=C(C)NC(C)=C(C(=O)Nc2ccccc2OC)C1c1ccccc1[N+](=O)[O-]
inactive: [1] 17.4 µM | [2] 18.6 µM | [3] 18.9 µM | [4] 16.9 µM | [6] 20.2 µM | [7] 33.2 µM | [8] 15.5 µM | [9] 16.1 µM | [20] 13.1 µM | [18] 11.4 µM | [12] 26.9 µM | [19] 11.5 µM | [13] 22.5 µM | [14] 14.5 µM | [15] 19 µM | [16] 21.3 µM | [17] 19.4 µM

CCOC(=O)NC(C(=O)OCC)C(F)(F)F (configuration not stated)
inactive: [1] > 100 µM | [2] > 100 µM | [3] 40.6 µM | [4] > 100 µM | [6] 23.9 µM | [7] > 100 µM | [8] 76.6 µM | [9] > 100 µM | [10] > 100 µM | [11] > 100 µM | [18] > 100 µM | [12] > 100 µM | [19] 48.4 µM | [13] > 100 µM | [14] > 100 µM | [15] > 100 µM | [16] > 10 µM | [17] > 100 µM

O=C(O/N=C1/CCC/C1=C\c1ccccc1)c1ccc(Cl)c(Cl)c1
inactive: [1] > 100 µM | [2] > 100 µM | [3] > 100 µM | [4] > 100 µM | [6] > 100 µM | [7] > 100 µM | [8] > 100 µM | [9] > 100 µM | [20] > 100 µM | [18] > 100 µM | [12] > 100 µM | [19] > 100 µM | [13] > 100 µM | [14] > 100 µM | [15] > 100 µM | [16] > 100 µM | [17] > 100 µM

CCN1CCC(O)(c2ccc(C)cc2)C(C(=O)c2ccc(C)cc2)C1 (configuration not stated)
inactive: [1] 13.5 µM | [2] 17.5 µM | [3] 18.3 µM | [4] 23.6 µM | [6] 20.3 µM | [7] > 100 µM | [8] 26.2 µM | [9] 36.7 µM | [20] 1.94 µM | [18] > 100 µM | [12] > 100 µM | [19] 23.9 µM | [13] > 44.5 µM | [14] > 52.5 µM | [15] 19.1 µM | [16] > 42.6 µM | [17] 28.2 µM

From ChEMBL document CHEMBL1201862, “PubChem BioAssay data set” (2004)
